Results: ChEMBL document CHEMBL1141465, “The design, synthesis and structure-activity relationships of 1-aryl-4-aminoalkylisoquinolines: a novel series of CRF-1 receptor antagonists” (Bioorg Med Chem Lett, 2008)
Converted amounts (≈) assume the structure as drawn.

Experiments:
[1] = Solubility at pH 5.4; assay type: physicochemical; conditions: buffer
[2] = molecular target: T1, Corticotropin-releasing factor receptor 1 (Homo sapiens, UniProt P34998); test: Displacement of [125I]sauvagine from CRF1 receptor expressed in human IMR32 cells; assay type: cell-based, IMR-32
T1 sequence (P34998 whole entry): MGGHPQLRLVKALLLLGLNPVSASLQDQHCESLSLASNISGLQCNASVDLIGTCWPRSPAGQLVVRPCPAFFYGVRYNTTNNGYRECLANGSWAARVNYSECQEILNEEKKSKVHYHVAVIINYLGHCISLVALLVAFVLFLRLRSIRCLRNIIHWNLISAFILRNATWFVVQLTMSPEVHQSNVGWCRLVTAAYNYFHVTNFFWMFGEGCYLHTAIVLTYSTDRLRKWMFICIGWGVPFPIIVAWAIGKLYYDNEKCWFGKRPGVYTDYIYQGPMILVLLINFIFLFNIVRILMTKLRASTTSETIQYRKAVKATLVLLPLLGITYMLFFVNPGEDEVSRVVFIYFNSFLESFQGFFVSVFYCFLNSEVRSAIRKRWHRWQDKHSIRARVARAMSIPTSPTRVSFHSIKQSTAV

[3] = Tmax in po dosed rat; assay type: ADME, organism-based; conditions: in vivo
[4] = Half life in po dosed rat; assay type: ADME, organism-based; conditions: in vivo
Rattus norvegicus = test: Volume of distribution in po dosed rat; assay type: ADME, organism-based; conditions: in vivo
[5] = Partition coefficient, log P of the compound; assay type: physicochemical; conditions: octanol/water
[6] = Oral bioavailability of rat at 20 mg/kg; assay type: ADME, organism-based; conditions: in vivo
[7] = Clearance in po dosed rat; assay type: ADME, organism-based; conditions: in vivo
[8] = Half life in rat liver microsomes; assay type: ADME, Microsome
[9] = Cmax in po dosed rat; assay type: ADME, organism-based; set-up: route oral; conditions: in vivo

| solubility [1] | Ki [2] | SMILES | also measured |
| --- | --- | --- | --- |
| < 0.5 µg/mL | 5 nM | CCCN(CC1CC1)c1c(C)nc(-c2c(C)cc(C)cc2OC)c2ccccc12 |  |
| 107 µg/mL (≈ 250 µM) | 1060 nM | CCCN(CCn1ccnc1)c1c(C)nc(-c2c(C)cc(C)cc2OC)c2ccccc12 |  |
|  | 9 nM | CCCN(CCC)c1c(CC)nc(-c2c(C)cc(C)cc2OC)c2ccccc12 |  |
| 125 µg/mL (≈ 255 µM) | 41 nM | CCCN(CCC)c1c(C)nc(-c2c(C)cc(C)cc2OCCN2CCC(O)CC2)c2ccccc12 |  |
|  | 28 nM | CCCN(CCC)c1c(C)nc(-c2ccc(OC)cc2C)c2ccccc12 |  |
|  | 103 nM | CCCN(CCC)c1c(C)nc(-c2ccc(Cl)cc2Cl)c2ccccc12 |  |
|  | > 10000 nM | CCCN(CCC)c1c(C)nc(-c2cccc(Cl)c2)c2ccccc12 |  |
|  | 30 nM | CCCN(CCC)c1c(C)nc(-c2c(C)cc(C)cc2OCCN2CCOCC2)c2ccccc12 |  |
|  | 49 nM | CCCN(CCC)c1cnc(-c2c(C)cc(C)cc2OC)c2ccccc12 |  |
|  | 21 nM | CCCN(CCC)c1c(C)nc(-c2ccc(Cl)cc2C)c2ccccc12 |  |
| 103 µg/mL (≈ 264 µM) | > 10000 nM | COc1cc(C)cc(C)c1-c1nc(C)c(NCCN2CCCC2)c2ccccc12 |  |
| 112 µg/mL (≈ 258 µM) | 265 nM | CCCN(CCC)c1c(C)nc(-c2c(C)cc(C)cc2OCCN(C)C)c2ccccc12 |  |
|  | 17 nM | CCCN(CCC)c1c(C)nc(-c2ccc(OC(F)F)cc2OC)c2ccccc12 |  |
| < 0.5 µg/mL | 8 nM | CCCN(CCC)c1c(C)nc(-c2c(OC)cc(C(F)(F)F)cc2C(F)(F)F)c2ccccc12 | Tmax [3]: 42 min; half-life [4]: 324 min; Vd (Rattus norvegicus): 13 L/kg; logP [5]: 5.7; bioavailability [6]: 4.8%; CL/F [7]: 14.5 mL/min/kg; half-life [8]: 36 min; Cmax [9]: 387 ng/mL |
|  | 165 nM | CCCNc1c(C)nc(-c2c(C)cc(C)cc2OC)c2ccccc12 |  |
|  | 962 nM | CCCN(CCC)c1c(C)nc(-c2ccc(Cl)cc2)c2ccccc12 |  |
|  | > 10000 nM | CCCN(CCC)c1c(C)nc(-c2ccccc2)c2ccccc12 |  |
|  | 26 nM | CCCN(CCC)c1c(C)nc(-c2c(C)cc(OC)cc2C)c2ccccc12 |  |
| 135 µg/mL (≈ 276 µM) | 524 nM | CCCN(CCC)c1c(C)nc(-c2c(C)cc(C)cc2OCCN2CCN(C)CC2)c2ccccc12 |  |
| 131 µg/mL (≈ 268 µM) | 32 nM | CCCN(CCC)c1c(C)nc(-c2c(C)cc(C)cc2OCCN2CCCC(O)C2)c2ccccc12 (stereo unspecified) |  |
|  | 36 nM | CCCN(CCC)c1c(C)nc(-c2ccc(OC)cc2CC)c2ccccc12 |  |
| 120 µg/mL (≈ 278 µM) | 215 nM | CCCN(CCN1CCCC1)c1c(C)nc(-c2c(C)cc(C)cc2OC)c2ccccc12 |  |
|  | 1680 nM | CCCN(CCC)c1c(C)nc(-c2ccccc2Cl)c2ccccc12 |  |
| < 0.5 µg/mL | 6 nM | CCCN(CCC)c1c(C)nc(-c2c(C)cc(C)cc2OC)c2ccccc12 | logP [5]: 4.6; half-life [8]: 4 min |
| 105 µg/mL (≈ 228 µM) | 173 nM | CCCN(CCC)c1c(C)nc(-c2c(C)cc(C)cc2OCCN2CCCC2)c2ccccc12 |  |
|  | 42 nM | CCCN(CCC)c1c(C)nc(-c2ccc(OC)cc2OC)c2ccccc12 |  |
| 27 µg/mL (≈ 57 µM) | 120 nM | CCCN(CCC)c1c(C)nc(-c2c(C)cc(C)cc2OCCN2CCCCC2)c2ccccc12 |  |
| < 0.5 µg/mL | 7 nM | COc1cc(C)cc(C)c1-c1nc(C)c(N(CC2CC2)CC2CC2)c2ccccc12 |  |
